This assay deals with GDF8 signaling (p-SMAD-3 (Ser423/425)). Put plainly: AlphaScreen SureFire SMAD3 (p-Ser423/425) assay, GDF8-stimulated cells (GDF pSMAD). The format is cell-based. Particulars: GDF8-stimulated, p-SMAD3 AlphaScreen, read-out: GDF pSMAD (MPC11) (inhibition of GDF8 signaling). For orientation: Bead proximity is the source of the signal in Alpha formats.

Like-named read-outs stand apart in the source and are kept apart here.

In the case of `Cc1cc(-c2ncccc2-c2ccc3ncnc(OCCN4CCN(C)CC4)c3c2)ccc1F` [compound 433, 6-(2-(4-Fluoro-3-methylphenyl)pyridin-3-yl)-4-(2-(4-methylpiperazin-1-yl)ethoxy)quinazoline], under “Mus musculus, MPC-11, MPC11”, the IC50 was found to be 285 nM.

With `Cc1cc(-c2ncccc2-c2ccc3ncnc(OCCCN4CCN(C)CC4)c3c2)ccc1F` [compound 434, 6-(2-(4-Fluoro-3-methylphenyl)pyridin-3-yl)-4-(3-(4-methylpiperazin-1-yl)propoxy)quinazoline], the IC50 (Mus musculus, MPC-11, MPC11) came out at 1490 nM.

For the compound `CN(C)CCCOc1ncnc2ccc(-c3cccnc3-c3ccc(F)c(Cl)c3)cc12` [compound 435, 3-((6-(2-(3-Chloro-4-fluorophenyl)pyridin-3-yl)quinazolin-4-yl)oxy)-N,N-dimethylpropan-1-amine], the IC50 (Mus musculus, MPC-11, MPC11) stood at 608 nM.

As to `O=C1CCCN1CCCOc1ncnc2ccc(-c3cccnc3-c3ccc(F)c(Cl)c3)cc12` [compound 436, 1-(3-((6-(2-(3-Chloro-4-fluorophenyl)pyridin-3-yl)quinazolin-4-yl)oxy)propyl)pyrrolidin-2-one], the IC50 (Mus musculus, MPC-11, MPC11) turned out to be 1180 nM.

In the case of `Cc1ccc(Oc2ncnc3ccc(-c4cccnc4-c4ccc(F)c(Cl)c4)cc23)cn1` [compound 437, 6-(2-(3-Chloro-4-fluorophenyl)pyridin-3-yl)-4-((6-methylpyridin-3-yl)oxy)quinazoline], the IC50 (Mus musculus, MPC-11, MPC11) is 739 nM.

For `CCN(CC)CCOc1ncnc2ccc(-c3cccnc3-c3ccc(F)c(Cl)c3)cc12` [compound 438, 2-((6-(2-(3-Chloro-4-fluorophenyl)pyridin-3-yl)quinazolin-4-yl)oxy)-N,N-diethylethan-1-amine], for the setting “Mus musculus, MPC-11, MPC11”, the IC50 is 959 nM.

`CN(C)CCOc1ncnc2ccc(-c3cccnc3-c3ccc(F)c(Cl)c3)cc12` [compound 439, 2-((6-(2-(3-Chloro-4-fluorophenyl)pyridin-3-yl)quinazolin-4-yl)oxy)-N,N-dimethylethan-1-amine]: the IC50 (Mus musculus, MPC-11, MPC11) is 738 nM.

For the compound `Cc1cc(-c2ncccc2-c2ccc3ncnc(Oc4ccc(C#N)cc4)c3c2)ccc1F` [compound 440, 4-((6-(2-(4-Fluoro-3-methylphenyl)pyridin-3-yl)quinazolin-4-yl)oxy)benzonitrile], the IC50 (Mus musculus, MPC-11, MPC11) was 1860 nM.

`Cc1cc(-c2ncccc2-c2ccc3ncnc(Oc4cccc(C#N)c4)c3c2)ccc1F` [compound 441, 3-((6-(2-(4-Fluoro-3-methylphenyl)pyridin-3-yl)quinazolin-4-yl)oxy)benzonitrile]: for the setting “Mus musculus, MPC-11, MPC11”, the IC50 came out at 1160 nM.

Regarding `Cc1cc(-c2ncccc2-c2ccc3ncnc(Oc4cccnc4)c3c2)ccc1F` [compound 442, 6-(2-(4-Fluoro-3-methylphenyl)pyridin-3-yl)-4-(pyridin-3-yloxy)quinazoline], the IC50 (Mus musculus, MPC-11, MPC11) amounted to 366 nM.

As for `Cc1cc(-c2ncccc2-c2ccc3ncnc(OCCN4CCCC4)c3c2)ccc1F` [compound 443, 6-(2-(4-Fluoro-3-methylphenyl)pyridin-3-yl)-4-(2-(pyrrolidin-1-yl)ethoxy)quinazoline], where the note is “Mus musculus, MPC-11, MPC11”, the IC50 came out at 429 nM.

`Cc1cc(-c2ncccc2-c2ccc3ncnc(Oc4cccc(N5CCOCC5)c4)c3c2)ccc1F` [compound 444, 4-(3-((6-(2-(4-Fluoro-3-methylphenyl)pyridin-3-yl)quinazolin-4-yl)oxy)phenyl)morpholine]: the IC50 (Mus musculus, MPC-11, MPC11) is 1080 nM.

For the compound `Cc1cc(-c2ncccc2-c2ccc3ncnc(OCCc4scnc4C)c3c2)ccc1F` [compound 445, 5-(2-((6-(2-(4-Fluoro-3-methylphenyl)pyridin-3-yl)quinazolin-4-yl)oxy)ethyl)-4-methylthiazole], the IC50 (Mus musculus, MPC-11, MPC11) was determined as 515 nM.

For the compound `Cc1cc(-c2ncccc2-c2ccc3ncnc(Oc4ccc5ncccc5c4)c3c2)ccc1F` [compound 446, 6-(2-(4-Fluoro-3-methylphenyl)pyridin-3-yl)-4-(quinolin-6-yloxy)quinazoline], the IC50 (Mus musculus, MPC-11, MPC11) was found to be 398 nM.

Regarding `Cc1cc(-c2ncccc2-c2ccc3ncnc(OC4CCN(c5ccncc5)CC4)c3c2)ccc1F` [compound 447, 6-(2-(4-Fluoro-3-methylphenyl)pyridin-3-yl)-4-((1-(pyridin-4-yl)piperidin-4-yl)oxy)quinazoline], the IC50 (Mus musculus, MPC-11, MPC11) amounted to 753 nM.

Turning to `Nc1ncnc2ccc(-c3cccnc3-c3ccc(F)c(Cl)c3)cc12` [compound 448, 6-(2-(3-Chloro-4-fluorophenyl)pyridin-3-yl)quinazolin-4-amine], under “MPC11”, the IC50 turned out to be 137 nM.

Turning to `Nc1ncnc2ccc(-c3cccnc3-c3cc(Cl)ccc3F)cc12` [compound 449, 6-(2-(5-Chloro-2-fluorophenyl)pyridin-3-yl)quinazolin-4-amine], the IC50 (Mus musculus, MPC-11, MPC11) is 68.6 nM.

As for `Nc1ncnc2ccc(-c3cccnc3-c3cc(Cl)c(F)cc3F)cc12` [compound 450, 6-(2-(5-Chloro-2,4-difluorophenyl)pyridin-3-yl)quinazolin-4-amine], the IC50 (Mus musculus, MPC-11, MPC11) stood at 136 nM.

Regarding `COc1cccc(-c2ncccc2-c2ccc3ncnc(N)c3c2)c1` [compound 451, 6-(2-(3-Methoxyphenyl)pyridin-3-yl)quinazolin-4-amine], the IC50 (Mus musculus, MPC-11, MPC11) was found to be 115 nM.

On to `Nc1ncnc2ccc(-c3cccnc3-c3cccc(OC(F)(F)F)c3)cc12` [compound 452, 6-(2-(3-(Trifluoromethoxy)phenyl)pyridin-3-yl)quinazolin-4-amine], for which the IC50 (Mus musculus, MPC-11, MPC11) came to 223 nM.

`Nc1ncnc2ccc(-c3cccnc3-c3ccc(F)c(F)c3)cc12` [compound 453, 6-(2-(3,4-Difluorophenyl)pyridin-3-yl)quinazolin-4-amine]: the IC50 (Mus musculus, MPC-11, MPC11) amounted to 816 nM.

Turning to `Nc1ncnc2ccc(-c3cccnc3-c3cc(F)ccc3F)cc12` [compound 454, 6-(2-(2,5-Difluorophenyl)pyridin-3-yl)quinazolin-4-amine], for the setting “Mus musculus, MPC-11, MPC11”, the IC50 was found to be 926 nM.

Take `Nc1ncnc2ccc(-c3cccnc3-c3ccc(F)cc3F)cc12` [compound 455, 6-(2-(2,4-Difluorophenyl)pyridin-3-yl)quinazolin-4-amine]: for the setting “Mus musculus, MPC-11, MPC11”, the IC50 was 1160 nM.

Take `Nc1ncnc2ccc(-c3cccnc3-c3cccc(O)c3)cc12` [compound 456, 3-(3-(4-Aminoquinazolin-6-yl)pyridin-2-yl)phenol]: the IC50 (Mus musculus, MPC-11, MPC11) was found to be 299 nM.

As for `Cc1ccc(-c2ncccc2-c2ccc3ncnc(N)c3c2)cc1F` [compound 459, 6-(2-(3-Fluoro-4-methylphenyl)pyridin-3-yl)quinazolin-4-amine], the IC50 (Mus musculus, MPC-11, MPC11) is 11500 nM.

For the compound `Nc1ncnc2ccc(-c3cccnc3-c3cc(F)cc(Cl)c3)cc12` [compound 460, 6-(2-(3-Chloro-5-fluorophenyl)pyridin-3-yl)quinazolin-4-amine], the IC50 (Mus musculus, MPC-11, MPC11) was determined as 129 nM.

As to `Nc1ncnc2ccc(-c3cccnc3-c3cccc(F)c3)cc12` [compound 461, 6-(2-(3-Fluorophenyl)pyridin-3-yl)quinazolin-4-amine], the IC50 (Mus musculus, MPC-11, MPC11) came to 551 nM.

With `Cc1ccccc1-c1ncccc1-c1ccc2ncnc(N)c2c1` [compound 462, 6-(2-(o-Tolyl)pyridin-3-yl)quinazolin-4-amine], the IC50 (Mus musculus, MPC-11, MPC11) came to 18400 nM.

Take `Cc1ccc(Cl)cc1-c1ncccc1-c1ccc2ncnc(N)c2c1` [compound 463, 6-(2-(5-Chloro-2-methylphenyl)pyridin-3-yl)quinazolin-4-amine]: the IC50 (Mus musculus, MPC-11, MPC11) came out at 297 nM.

In the case of `Cc1c(Cl)cccc1-c1ncccc1-c1ccc2ncnc(N)c2c1` [compound 464, 6-(2-(3-Chloro-2-methylphenyl)pyridin-3-yl)quinazolin-4-amine], for the setting “Mus musculus, MPC-11, MPC11”, the IC50 was 3960 nM.

Take `Cc1ccc(F)cc1-c1ncccc1-c1ccc2ncnc(N)c2c1` [compound 466, 6-(2-(5-Fluoro-2-methylphenyl)pyridin-3-yl)quinazolin-4-amine]: under “Mus musculus, MPC-11, MPC11”, the IC50 was found to be 7580 nM.

As to `Cc1cc(F)ccc1-c1ncccc1-c1ccc2ncnc(N)c2c1` [compound 467, 6-(2-(4-Fluoro-2-methylphenyl)pyridin-3-yl)quinazolin-4-amine], the IC50 (Mus musculus, MPC-11, MPC11) worked out at 12200 nM.

`Cc1c(F)cccc1-c1ncccc1-c1ccc2ncnc(N)c2c1` [compound 468, 6-(2-(3-Fluoro-2-methylphenyl)pyridin-3-yl)quinazolin-4-amine]: under “Mus musculus, MPC-11, MPC11”, the IC50 came out at 7820 nM.

Regarding `Nc1ncnc2ccc(-c3cccnc3-c3cc(F)c(F)c(F)c3)cc12` [compound 469, 6-(2-(3,4,5-Trifluorophenyl)pyridin-3-yl)quinazolin-4-amine], the IC50 (Mus musculus, MPC-11, MPC11) was 1580 nM.

On to `Nc1ncnc2ccc(-c3cccnc3-c3ccc4c(c3)CCC4)cc12` [compound 470, 6-(2-(2,3-Dihydro-1H-inden-5-yl)pyridin-3-yl)quinazolin-4-amine], for which the IC50 (Mus musculus, MPC-11, MPC11) amounted to 21100 nM.

For `COc1ccc(F)c(-c2ncccc2-c2ccc3ncnc(N)c3c2)c1` [compound 473, 6-(2-(2-Fluoro-5-methoxyphenyl)pyridin-3-yl)quinazolin-4-amine], the IC50 (Mus musculus, MPC-11, MPC11) is 292 nM.

In the case of `COc1cc(-c2ncccc2-c2ccc3ncnc(N)c3c2)ccc1F` [compound 474, 6-(2-(4-Fluoro-3-methoxyphenyl)pyridin-3-yl)quinazolin-4-amine], the IC50 (Mus musculus, MPC-11, MPC11) stood at 429 nM.

Regarding `Nc1ncnc2ccc(-c3cccnc3-c3ccc(F)c(C(F)(F)F)c3)cc12` [compound 476, 6-(2-(4-Fluoro-3-(trifluoromethyl)phenyl)pyridin-3-yl)quinazolin-4-amine], the IC50 (Mus musculus, MPC-11, MPC11) came out at 2760 nM.

As for `N#Cc1cc(-c2ncccc2-c2ccc3ncnc(N)c3c2)ccc1F` [compound 477, 5-(3-(4-Aminoquinazolin-6-yl)pyridin-2-yl)-2-fluorobenzonitrile], the IC50 (Mus musculus, MPC-11, MPC11) amounted to 492 nM.

With `CC(C)c1cccc(-c2ncccc2-c2ccc3ncnc(N)c3c2)c1` [compound 478, 6-(2-(3-Isopropylphenyl)pyridin-3-yl)quinazolin-4-amine], the IC50 (Mus musculus, MPC-11, MPC11) turned out to be 6600 nM.

As for `CC(C)Oc1cccc(-c2ncccc2-c2ccc3ncnc(N)c3c2)c1` [compound 480, 6-(2-(3-isopropoxyphenyl)pyridin-3-yl)quinazolin-4-amine], where the note is “Mus musculus, MPC-11, MPC11”, the IC50 stood at 1210 nM.

With `N#CCOc1cccc(-c2ncccc2-c2ccc3ncnc(N)c3c2)c1` [compound 481, 2-(3-(3-(4-Aminoquinazolin-6-yl)pyridin-2-yl)phenoxy)acetonitrile], the IC50 (Mus musculus, MPC-11, MPC11) came to 1280 nM.

As to `COCCOc1cccc(-c2ncccc2-c2ccc3ncnc(N)c3c2)c1` [compound 482, 6-(2-(3-(2-Methoxyethoxy)phenyl)pyridin-3-yl)quinazolin-4-amine], the IC50 (Mus musculus, MPC-11, MPC11) is 1700 nM.

(Values after US10858335B2 (Rigel Pharmaceuticals, Inc., priority 2014, dated 2020).)
